Laboratory results reported in patent publication US11124523B2, “2,6-dioxaspiro [4,5] decane derivatives and preparation method therefor and pharmaceutical applications thereof” (SHANDONG LUYE PHARMACEUTICAL CO., LTD., priority 2017, dated 2021).
Structures can show the parent of a compound that is named as a salt. Where two headings read alike, the source gives them in different places.

Tests used:
CYP2C19 = CYP2C19 (Homo sapiens (Human), UniProt P33261); experiment: Inhibition of cytochrome P450 isoenzymes, CYP2C19; format: in vitro ADME; conditions: >50 μM: inhibitory effect less than 50% at 50 μM; read-out: CYP 2C19 IC50
Experimental: (§1) 4.1 Experimental Purpose: To test the inhibitory effects of the compounds of the present disclosure on different isoforms of human cytochrome P450 isoenzymes
(§2) 1) The activities of CYP1A2, 2C9, 2C19, 2D6, and 3A4 were measured using a standard substrate method. In each reaction, the enzyme activities were measured in the presence and absence of the substance to be tested, wherein a single sample was measured at a total of eight test concentrations. A 5-in-1 mixed inhibitor was used.
(§3) 2) An incubation matrix comprising microsomes, a substrate, and an inhibitor or the compound to be tested was pre-incubated at 37° C. for 5 minutes, and then NADPH was added to start the reaction.
(§4) 3) After the incubation, acetonitrile with an internal standard was added to stop the reaction.
(§5) 4) Metabolites generated by the substrates were measured by using the LC-MS/MS method, and the peak area ratio of each metabolite to the internal standard was evaluated and the inhibition rate and IC50 were calculated.

[1] = target: human μ-subtype opioid receptor (hMOR) (Homo sapiens (Human), UniProt P35372); experiment: MOR cAMP agonist activity test; format: cell-based; conditions: for Emax: maximum effect of enkephalin DAMGO was 100%
Experimental: Test 1: MOR cAMP Agonist Activity Test
1.1 Experimental Purpose: To test the cAMP agonist activity of the compounds of the present disclosure on the human μ-subtype opioid receptor (hMOR).
a. Compound samples were dissolved in DMSO to a storage concentration of 10 mM.
b. A series of diluted samples were formulated on a 384-well LDV plate. A total of 11 concentration points were obtained by 3.162-fold gradient dilution.
c. The series of diluted samples were transferred to an experimental plate (Corning-3824) by using an Echo machine, wherein 30 nL was transferred corresponding to each well.
The experiment was performed using a cAMP detection kit from Cisbio (Cisbio #62AM4PEJ).
a. Assay buffer and stimulation buffer (STB) required for the experiment were formulated.
Stimulation Buffer: formulated with the assay buffer, containing 5 μM NKH477 (CAS: 138605-00-2) and 200 μM IBMX (3-isobutyl-1-methylxanthine)
b. […] The number of cells in the well was 10,000 cells/well.
c. The experimental plate was placed in a 37° C. constant-temperature incubator for incubation. The incubation was performed for 40 minutes.
d. A cAMP standard concentration curve was prepared. The first concentration point was at 2848 nM, and a total of sixteen detection concentrations were obtained by 4-fold gradient dilution. There were three replicates for each concentration point.
e. The cAMP detection kit from Cisbio was provided therein with a d2-labeled cAMP reagent (d2 reagent) and an Eu-labeled cAMP antibody reagent (Crypate reagent). The above two reagents were formulated according to the kit instructions, and then added to the sample experimental plate and to the cAMP standard concentration experimental plate, respectively. It was necessary to add 5 μL of the d2 reagent and then 5 μL of the Cryptate reagent to each well.
f. After the experimental plates were left at room temperature for 60 minutes, the experimental plates were read on the Envision.

CYP2C9 = CYP2C9 (Homo sapiens (Human), UniProt P11712); experiment: Inhibition of cytochrome P450 isoenzymes, CYP2C9; format: in vitro ADME; conditions: >50 μM: inhibitory effect less than 50% at 50 μM; read-out: CYP 2C9 IC50
Experimental: as §1, §2, §3, §4, §5

CYP2D6 = CYP2D6 (Homo sapiens (Human), UniProt P10635); experiment: Inhibition of cytochrome P450 isoenzymes, CYP2D6; format: in vitro ADME
Experimental: as §1, §2, §3, §4, §5

CYP3A4 = CYP3A4 (Homo sapiens (Human), UniProt P08684); experiment: Inhibition of cytochrome P450 isoenzymes, CYP3A4; format: in vitro ADME; conditions: >50 μM: inhibitory effect less than 50% at 50 μM; read-out: CYP 3A4 IC50
Experimental: as §1, §2, §3, §4, §5

[2] = Pharmacokinetics of the compounds in rats; format: in vivo, rat; conditions: for Apparent Clearance Cl: male SD rats, single IV, mg/Kg: Comparative Compound 1 1.80, (+)-5 2.40, (+)-16 1.76, HCl salt of (+)-23 1.71; for Kp at […] / Vd / AUC(0-inf) / half-life / C0: male, SD, rat, iv; for Kp at […]: brain/plasma, read-out: Brain/Plasm Ratio B/P ratio; for Vd / AUC(0-inf) / half-life / C0: plasma; for Vd: read-out: Apparent Distribution Volume Vd; for AUC(0-inf): read-out: Area under the Curve AUC0-inf; for half-life: read-out: Hal-life T1/2 (converted); for C0: read-out: Initial Concentration C0
Experimental: 6.1 Experimental Purpose: To measure, using a LC/MS/MS method, the medicament concentrations of the compound in plasma and specific tissues at different time points after the compound was administered by a single intravenous injection (IV) to 7-9-week-old male SD rats used as test animals, to study on the pharmacokinetic behavior of the compound of the present disclosure in rats, and to evaluate the pharmacokinetic characteristics thereof. 6.2 Compound Formulation
Each of them was formulated at a concentration of 1 mg/mL and was used for IV (intravenous injection) administration.
The actual weights of the rats were weighed on the day of administration and volumes to be administered were calculated. The above formulated solutions to be administered were administered by injection into caudal veins of rats.
About 0.2 mL of whole blood samples were collected by means of jugular vein puncture at the time set in the experimental protocol, and the actual blood collection time was recorded in the experimental records. All the blood samples were added to labeled plastic centrifuge tubes to which K2-EDTA anticoagulant was added in advance. After the blood samples were collected, they were centrifuged at 3,000 g for 10 minutes at 4° C. to prepare the supernatant plasma, and the plasma was stored at −20° C. or a lower temperature for LC-MS/MS analysis.
The concentrations of the compounds in rat plasma were measured by using high-performance liquid chromatography-tandem mass spectrometry (LC-MS/MS). The retention durations of the compounds and internal standard, chromatogram acquisition, and integration of chromatograms were processed using the software Analyst (Applied Biosystems), and data statistics were processed using the software Watson LIMS (Thermo Fisher Scientific) or Analyst (Applied Biosystems). The plasma concentration was processed using a non-compartmental model of WinNonlin™ Version 6.3 (Pharsight, Mountain View, Calif.) which was a pharmacokinetic software, and the pharmacokinetic parameters were calculated using a linear logarithmic trapezoidal method.

[3] = published Phase 2 clinical trial data; compared to morphine; cited from earlier work

CYP2D6, sequence (P10635 whole entry): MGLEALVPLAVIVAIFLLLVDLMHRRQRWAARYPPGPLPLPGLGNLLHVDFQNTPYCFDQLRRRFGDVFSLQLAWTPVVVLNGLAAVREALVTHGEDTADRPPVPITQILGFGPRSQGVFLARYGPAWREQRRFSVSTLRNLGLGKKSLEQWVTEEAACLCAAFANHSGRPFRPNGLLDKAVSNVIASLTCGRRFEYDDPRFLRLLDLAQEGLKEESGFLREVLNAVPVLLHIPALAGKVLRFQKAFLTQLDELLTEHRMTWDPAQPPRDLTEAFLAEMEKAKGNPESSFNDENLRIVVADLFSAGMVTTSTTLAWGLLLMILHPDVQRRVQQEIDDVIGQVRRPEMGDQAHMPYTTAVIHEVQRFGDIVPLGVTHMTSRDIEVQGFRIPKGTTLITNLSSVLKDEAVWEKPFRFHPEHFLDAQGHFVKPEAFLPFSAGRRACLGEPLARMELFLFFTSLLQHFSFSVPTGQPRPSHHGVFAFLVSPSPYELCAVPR
CYP3A4, sequence (P08684 whole entry): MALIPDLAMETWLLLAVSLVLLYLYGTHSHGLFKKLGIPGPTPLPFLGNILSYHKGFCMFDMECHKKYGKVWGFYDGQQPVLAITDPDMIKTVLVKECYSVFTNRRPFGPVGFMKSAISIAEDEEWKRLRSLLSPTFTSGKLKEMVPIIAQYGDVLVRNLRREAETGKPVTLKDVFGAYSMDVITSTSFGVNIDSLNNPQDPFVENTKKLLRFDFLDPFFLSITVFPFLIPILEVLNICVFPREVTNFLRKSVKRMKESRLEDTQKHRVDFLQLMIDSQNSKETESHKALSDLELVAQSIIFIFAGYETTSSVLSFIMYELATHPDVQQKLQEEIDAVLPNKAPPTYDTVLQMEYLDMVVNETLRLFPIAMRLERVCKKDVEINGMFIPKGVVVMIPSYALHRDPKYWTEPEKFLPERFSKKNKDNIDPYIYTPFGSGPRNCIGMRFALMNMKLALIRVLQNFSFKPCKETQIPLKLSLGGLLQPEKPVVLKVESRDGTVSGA
CYP2C9, sequence (P11712 whole entry): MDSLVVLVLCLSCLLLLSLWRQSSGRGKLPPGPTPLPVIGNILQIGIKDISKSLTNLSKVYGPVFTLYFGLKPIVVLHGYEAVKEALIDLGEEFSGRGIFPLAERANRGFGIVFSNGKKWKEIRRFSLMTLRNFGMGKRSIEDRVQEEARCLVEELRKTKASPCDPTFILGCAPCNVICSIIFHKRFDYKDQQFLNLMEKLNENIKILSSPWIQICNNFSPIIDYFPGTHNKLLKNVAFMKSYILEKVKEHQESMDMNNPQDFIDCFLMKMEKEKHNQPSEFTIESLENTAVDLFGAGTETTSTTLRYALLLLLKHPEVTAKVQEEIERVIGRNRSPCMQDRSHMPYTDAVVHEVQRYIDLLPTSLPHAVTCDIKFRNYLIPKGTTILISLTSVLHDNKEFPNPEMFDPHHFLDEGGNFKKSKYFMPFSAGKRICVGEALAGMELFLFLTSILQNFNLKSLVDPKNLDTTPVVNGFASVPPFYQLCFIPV
CYP2C19, sequence (P33261 whole entry, canonical isoform): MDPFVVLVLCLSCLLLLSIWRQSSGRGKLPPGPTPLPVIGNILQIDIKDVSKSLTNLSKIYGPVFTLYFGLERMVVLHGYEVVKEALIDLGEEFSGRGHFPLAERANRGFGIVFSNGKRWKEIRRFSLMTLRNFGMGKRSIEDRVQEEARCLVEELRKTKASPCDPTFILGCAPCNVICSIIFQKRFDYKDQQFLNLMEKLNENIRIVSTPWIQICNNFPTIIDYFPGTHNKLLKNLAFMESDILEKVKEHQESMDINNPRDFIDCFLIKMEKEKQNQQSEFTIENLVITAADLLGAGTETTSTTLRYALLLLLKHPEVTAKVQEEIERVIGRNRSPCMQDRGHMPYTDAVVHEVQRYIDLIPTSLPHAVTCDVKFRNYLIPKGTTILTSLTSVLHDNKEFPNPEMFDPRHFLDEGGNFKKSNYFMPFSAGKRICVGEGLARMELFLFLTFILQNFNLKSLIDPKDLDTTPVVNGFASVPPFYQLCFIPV

Row | Structure (SMILES) | IC50 (CYP2C19) | Emax [1] | IC50 (CYP2C9) | IC50 (CYP2D6; read-out: CYP 2D6 IC50) | IC50 (CYP3A4) | EC50 [1] | Apparent Clearance Cl [2] | Kp at […] [2] | Vd [2] | AUC(0-inf) [2] | half-life [2] | C0 [2] | IC50 (CYP2D6) | side effects, Phase 2 clinical trial (in words) [3]
1 | c1ccc([C@]2(CCNCc3scc4c3CCC4)CCO[C@]3(CCOC3)C2)nc1 [(+)-2] | > 50 µM | 96% | > 50 µM | 46.4 µM | > 50 µM |  |  |  |  |  |  |  |  | 
2 | Fc1ccc([C@]2(CCNCc3cccc(Cl)c3)CCO[C@]3(CCOC3)C2)nc1 [(+)-16] | 33.7 µM | 91.7% | > 50 µM | 12.7 µM | 40.6 µM | 0.0005 µM | 114 mL/min/kg | 4.61 | 6.3 L/kg | 0.723 µM·h | 54 min | 979 nM |  | 
3 | Cc1cccc(CNCC[C@@]2(c3ccc(F)cn3)CCO[C@]3(CCOC3)C2)c1 [Hydrochloride Salt of (+)-22] | > 50 µM | 93.3% | > 50 µM |  | > 50 µM |  |  |  |  |  |  |  | 19.3 µM | 
4 | Fc1ccc([C@]2(CCNCc3cccc(F)c3)CCO[C@]3(CCOC3)C2)nc1 [Hydrochloride Salt of (+)-23] | > 50 µM | 84.5% | > 50 µM | 17.8 µM | > 50 µM | 0.001 µM | 113 mL/min/kg | 2.2 | 5 L/kg | 0.763 µM·h | 42 min | 1550 nM |  | 
5 | COc1ccsc1CNCC[C@@]1(c2ccccn2)CCOC2(CCCC2)C1 [compound 1, Oliceridine, reference compound] | > 50 µM | 82.7% | > 50 µM |  |  |  | 74.4 mL/min/kg |  | 4.3 L/kg | 1.15 µM·h | 48 min | 1900 nM | 4.6 µM | significant reduction in side effects compared to morphine
